Experiments:
Assay type in all cases: cell-based
[1] = system: T.b. rhodesiense, strain STIB 900 trypomastigotes; experiment: In vitro growth inhibition of bloodstream form T. b. rhodesiense trypomastigotes; settings: for activity designation against T. b. rhodesiense: TDR criteria
[2] = system: T. cruzi, strain Tulahuen C4 amastigotes; experiment: In vitro growth inhibition of T. cruzi amastigotes in infected L6 myoblasts
[3] = system: L. donovani axenic, strain MHOM-ET-67/L82 amastigotes; experiment: In vitro growth inhibition of axenically cultured L. donovani amastigotes; settings: for activity designation against L. donovani: TDR criteria
[4] = system: bloodstream form T. b. brucei parasites, engineered to overexpress type I nitroreductase; experiment: microbe, parasite or virus in culture; settings: Trypanosoma brucei, read-out: TbNTR −tet (IC50)
[5] = system: L6 cells (rat skeletal myoblasts); experiment: Cytotoxicity in L6 cells; settings: read-out: L6 IC50 (cytotoxicity)

Molecule	activity designation against T. b. rhodesiense [1]	also measured
O=C(NCCCn1ccnc1[N+](=O)[O-])c1ccc(C(F)(F)F)cc1 [Compound 1]	inactive	
O=C(NCCCn1ccnc1[N+](=O)[O-])c1ccc(OC(F)(F)F)cc1 [Compound 2, N-[3-(2-Nitro-1H-imidazol-1-yl)propyl]-4-(trifluoromethoxy)benzamide]	inactive	
O=C(NCCCCn1cnc([N+](=O)[O-])n1)c1ccc(OC(F)(F)F)cc1 [Compound 6, N-[4-(3-Nitro-1H-1,2,4-triazol-1-yl)butyl]-4-(trifluoromethoxy)benzamide]		SI (T. cruzi) ([2]; ratio IC50 in L6 cells/IC50 in T. cruzi): >2381
O=C(NCCCn1cnc([N+](=O)[O-])n1)c1cc(C(F)(F)F)cc(C(F)(F)F)c1 [Compound 8, N-[3-(3-Nitro-1H-1,2,4-triazol-1-yl)propyl]-3,5-bis(trifluoromethyl)benzamide]	inactivity	
O=C(NCCCn1cnc([N+](=O)[O-])n1)c1ccc(C(F)(F)F)nc1 [Compound 9, N-[3-(3-Nitro-1H-1,2,4-triazol-1-yl)propyl]-6-(trifluoromethyl)pyridine-3-carboxamide]	moderate activity	
O=C(NCCCn1cnc([N+](=O)[O-])n1)c1cnc2ccccc2n1 [Compound 12, N-[3-(3-Nitro-1H-1,2,4-triazol-1-yl)propyl]quinoxaline-2-carboxamide]	complete inactivity	
O=C(NCCCn1cnc([N+](=O)[O-])n1)c1ccc(-c2ccccc2)cc1 [Compound 13, N-[3-(3-Nitro-1H-1,2,4-triazol-1-yl)propyl]-4-phenylbenzamide]	moderately active (IC50 = 0.5–6.0 μM)	
Cc1ccc2nc(NC(=O)Cn3cnc([N+](=O)[O-])n3)sc2c1 [Compound 17, N-(6-methyl-1,3-benzothiazol-2-yl)-2-(3-nitro-1H-1,2,4-triazol-1-yl)acetamide]	inactive	activity designation against L. donovani [3]: moderately active (IC50 = 1.0–6.0 μM)
O=C(Cn1cnc([N+](=O)[O-])n1)Nc1nc2ccc(Cl)cc2s1 [Compound 18, N-(6-chloro-1,3-benzothiazol-2-yl)-2-(3-nitro-1H-1,2,4-triazol-1-yl)acetamide]	inactive	activity designation against L. donovani [3]: moderately active (IC50 = 1.0–6.0 μM)
O=C(Cn1cnc([N+](=O)[O-])n1)Nc1nc2cc(Cl)ccc2o1 [Compound 19, N-(5-chloro-1,3-benzoxazol-2-yl)-2-(3-nitro-1H-1,2,4-triazol-1-yl)acetamide]	inactive	
O=[N+]([O-])c1nccn1CCCNS(=O)(=O)c1ccc(C(F)(F)F)cc1 [Compound 21, N-[3-(2-Nitro-1H-imidazol-1-yl)propyl]-4-(trifluoromethyl)benzene-1-sulfonamide]	inactive	
O=[N+]([O-])c1ncn(CCCNS(=O)(=O)c2cc(C(F)(F)F)ccc2C(F)(F)F)n1 [Compound 25, N-[3-(3-Nitro-1H-1,2,4-triazol-1-yl)propyl]-2,5-bis(trifluoromethyl)benzene-1-sulfonamide]	inactivity	
O=[N+]([O-])c1ncn(CCNS(=O)(=O)c2cc(C(F)(F)F)cc(C(F)(F)F)c2)n1 [Compound 26, N-[2-(3-nitro-1H-1,2,4-triazol-1-yl)ethyl]-3,5-bis(trifluoromethyl)benzene-1-sulfonamide]	inactivity	
O=[N+]([O-])c1ncn(CCCNS(=O)(=O)c2cc(C(F)(F)F)cc(C(F)(F)F)c2)n1 [Compound 27, N-[3-(3-nitro-1H-1,2,4-triazol-1-yl)propyl]-3,5-bis(trifluoromethyl)benzene-1-sulfonamide]	inactivity	
Cc1ccc(S(=O)(=O)NCCCn2cnc([N+](=O)[O-])n2)cc1 [Compound 28, 4-Methyl-N-[3-(3-nitro-1H-1,2,4-triazol-1-yl)propyl]benzene-1-sulfonamide]		SI (L.don. ax.) ([3]; ratio IC50 in L6 cells/IC50 in L. donovani): >8.1
O=[N+]([O-])c1ncn(CCNS(=O)(=O)Cc2ccccc2)n1 [Compound 30, N-[2-(3-Nitro-1H-1,2,4-triazol-1-yl)ethyl]-1-phenylmethanesulfonamide]		activity designation against T. cruzi ([2]; TDR criteria): moderately active (IC50 = 4.0–60 μM)
Nc1nc(N)nc(Nc2ccc([As]3SCC(CO)S3)cc2)n1 (stereo not drawn) [Melars., Melarsoprol, reference compound]		IC50 ([1]; Trypanosoma brucei, RHODESIENSE|STIB900, read-out: T.b.rhod. IC50): 12 nM
CC1CS(=O)(=O)CCN1/N=C/c1ccc([N+](=O)[O-])o1 (stereo not drawn) [Nfx, 4-(5-nitrofurfurylidenamino)-3-methylthio-morpholine-1,1-dioxide]		IC50 [4]: 1710 ± 60 nM
Podophylotoxin [Podoph.]		IC50 [5]: 22 nM

From publication PMC3375360 (Journal of Medicinal Chemistry, 2012)
